Literature values, collected in patent US7582314B2, “Compositions and methods for the management of hyperproliferative dermatological conditions” (Sami Labs Ltd., priority 2003, dated 2009).
Like-named read-outs stand apart in the source and are kept apart here.

Columns and labels:
plaque psoriasis = details: oral supplementation; psoriasis patients
[1] = test system: damage to the skin induced by UV radiation; details: topical; human subjects
[2] = test system: damage to the skin induced by UV radiation; details: topical; experimental animals

**Q.** Which results are given for C[Se]CC[C@H](N)C(=O)O [selenomethionine]?
**A.** efficacy as adjuvant treatment in plaque psoriasis (plaque psoriasis): ineffective; degree of damage to the skin induced by UV radiation [1]: reduces; degree of damage to the skin induced by UV radiation [2]: reduces
